Patent US20240360082A1, “SUBSTITUTED PYRIDONE COMPOUNDS USEFUL TO TREAT ORTH[…]” (priority 2021, published 2024)

Molecular target: influenza A virus minigenome (PB2, PB1, PA, NP proteins) (UniProt P04665)
Assay type: cell-based
Conditions: read-out: RNP_ Hubei B IC50

influenza A virus minigenome (PB2, PB1, PA, NP proteins), sequence (P04665 whole entry): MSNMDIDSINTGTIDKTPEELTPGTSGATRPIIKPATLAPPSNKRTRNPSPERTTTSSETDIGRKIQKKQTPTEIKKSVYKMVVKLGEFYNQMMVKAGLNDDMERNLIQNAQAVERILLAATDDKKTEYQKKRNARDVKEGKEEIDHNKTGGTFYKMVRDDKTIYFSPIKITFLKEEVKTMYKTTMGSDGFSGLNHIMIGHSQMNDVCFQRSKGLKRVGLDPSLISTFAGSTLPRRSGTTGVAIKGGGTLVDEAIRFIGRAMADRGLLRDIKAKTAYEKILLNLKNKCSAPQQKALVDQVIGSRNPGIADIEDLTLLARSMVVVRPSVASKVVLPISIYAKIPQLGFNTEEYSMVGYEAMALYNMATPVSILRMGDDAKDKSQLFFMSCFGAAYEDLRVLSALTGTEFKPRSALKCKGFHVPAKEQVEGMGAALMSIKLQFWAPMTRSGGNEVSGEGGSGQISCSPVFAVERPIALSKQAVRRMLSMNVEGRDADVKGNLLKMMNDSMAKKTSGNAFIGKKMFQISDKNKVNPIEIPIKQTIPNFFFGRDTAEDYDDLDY

| Compound | IC50 |
| --- | --- |
| NC(=O)c1cc(-c2ccc(OC[C@H]3CO[C@H]4[C@@H](O3)C4(F)F)cc2)c(C(F)(F)F)[nH]c1=O [Example 391, 5-(4-((trans-7,7-difluoro-2,5-dioxabicyclo[4.1.0]heptan-3-yl)methoxy)phenyl)-2-oxo-6-(trifluoromethyl)-1,2-dihydropyridine-3-carboxamide] | 1 to 5 µM |
| C[C@]12O[C@H](COc3ccc(-c4cc(C(N)=O)c(=O)[nH]c4C(F)(F)F)cc3)CO[C@H]1C2(F)F [Example 394, 5-(4-(((1S,3S,6R)-7,7-difluoro-1-methyl-2,5-dioxabicyclo[4.1.0]heptan-3-yl)methoxy)phenyl)-2-oxo-6-(trifluoromethyl)-1,2-dihydropyridine-3-carboxamide] | 5 to 10 µM |
| C[C@@]12O[C@H](COc3ccc(-c4cc(C(N)=O)c(=O)[nH]c4C(F)(F)F)cc3)CO[C@@H]1C2(F)F [Example 395, 55-(4-(((1R,3S,6S)-7,7-difluoro-1-methyl-2,5-dioxabicyclo[4.1.0]heptan-3-yl)methoxy)phenyl)-2-oxo-6-(trifluoromethyl)-1,2-dihydropyridine-3-carboxamide] | 5 to 10 µM |
| C[C@@]12O[C@@H](COc3ccc(-c4cc(C(N)=O)c(=O)[nH]c4C(F)(F)F)cc3)CO[C@@H]1C2(F)F [Example 396, 5-(4-(((1R,3R,6S)-7,7-difluoro-1-methyl-2,5-dioxabicyclo[4.1.0]heptan-3-yl)methoxy)phenyl)-2-oxo-6-(trifluoromethyl)-1,2-dihydropyridine-3-carboxamide] | 5 to 10 µM |
| C[C@]12O[C@@H](COc3ccc(-c4cc(C(N)=O)c(=O)[nH]c4C(F)(F)F)cc3)CO[C@H]1C2(F)F [Example 397, 5-(4-(((1S,3R,6R)-7,7-difluoro-1-methyl-2,5-dioxabicyclo[4.1.0]heptan-3-yl)methoxy)phenyl)-2-oxo-6-(trifluoromethyl)-1,2-dihydropyridine-3-carboxamide] | 5 to 10 µM |
| COC[C@H]1COC[C@@H](COc2ccc(-c3cc(C(N)=O)c(=O)[nH]c3C(F)(F)F)cc2)O1 [Example 398, 5-(4-(((2S,6S)-6-(methoxymethyl)-1,4-dioxan-2-yl)methoxy)phenyl)-2-oxo-6-(trifluoromethyl)-1,2-dihydropyridine-3-carboxamide] | 5 to 10 µM |
| COC[C@@H]1COC[C@@H](COc2ccc(-c3cc(C(N)=O)c(=O)[nH]c3C(F)(F)F)cc2)O1 [Example 399, 5-(4-(((2S,6R)-6-(methoxymethyl)-1,4-dioxan-2-yl)methoxy)phenyl)-2-oxo-6-(trifluoromethyl)-1,2-dihydropyridine-3-carboxamide] | 5 to 10 µM |
| CC(C)OC[C@H]1COC[C@@H](COc2ccc(-c3cc(C(N)=O)c(=O)[nH]c3C(F)(F)F)cc2)O1 [Example 402, 5-(4-(((2S,6R)-6-(isopropoxymethyl)-1,4-dioxan-2-yl)methoxy)phenyl)-2-oxo-6-(trifluoromethyl)-1,2-dihydropyridine-3-carboxamide] | 5 to 10 µM |
| NC(=O)c1cc(-c2ccc(OC[C@@H]3COC[C@H](C4CC4)O3)cc2)c(C(F)(F)F)[nH]c1=O [Example 404, 5-(4-(((2S,6S)-6-cyclopropyl-1,4-dioxan-2-yl)methoxy)phenyl)-2-oxo-6-(trifluoromethyl)-1,2-dihydropyridine-3-carboxamide] | 10 to 25 µM |
| COC[C@@]1(C)COC[C@@H](COc2ccc(-c3cc(C(N)=O)c(=O)[nH]c3C(F)(F)F)cc2)O1 [Example 405, 5-(4-(((2S,6S)-6-(methoxymethyl)-6-methyl-1,4-dioxan-2-yl)methoxy)phenyl)-2-oxo-6-(trifluoromethyl)-1,2-dihydropyridine-3-carboxamide] | 5 to 10 µM |
| COC[C@]1(C)COC[C@@H](COc2ccc(-c3cc(C(N)=O)c(=O)[nH]c3C(F)(F)F)cc2)O1 [Example 406, 5-(4-(((2S,6R)-6-(methoxymethyl)-6-methyl-1,4-dioxan-2-yl)methoxy)phenyl)-2-oxo-6-(trifluoromethyl)-1,2-dihydropyridine-3-carboxamide] | 5 to 10 µM |
| COC[C@]1(C)COC[C@H](COc2ccc(-c3cc(C(N)=O)c(=O)[nH]c3C(F)(F)F)cc2)O1 [Example 407, 5-(4-(((2R,6R)-6-(methoxymethyl)-6-methyl-1,4-dioxan-2-yl)methoxy)phenyl)-2-oxo-6-(trifluoromethyl)-1,2-dihydropyridine-3-carboxamide] | 5 to 10 µM |
| COC[C@@]1(C)COC[C@H](COc2ccc(-c3cc(C(N)=O)c(=O)[nH]c3C(F)(F)F)cc2)O1 [Example 408, 5-(4-(((2R,6S)-6-(methoxymethyl)-6-methyl-1,4-dioxan-2-yl)methoxy)phenyl)-2-oxo-6-(trifluoromethyl)-1,2-dihydropyridine-3-carboxamide] | 5 to 10 µM |
| CN(C)C(=O)[C@@]1(C)COC[C@@H](COc2ccc(-c3cc(C(N)=O)c(=O)[nH]c3C(F)(F)F)cc2)O1 [Example 409, 5-(4-(((2S,6R)-6-(dimethylcarbamoyl)-6-methyl-1,4-dioxan-2-yl)methoxy)phenyl)-2-oxo-6-(trifluoromethyl)-1,2-dihydropyridine-3-carboxamide] | 5 to 10 µM |
| [2H]C([2H])([2H])OC[C@@]1(C)COC[C@@H](COc2ccc(-c3cc(C(N)=O)c(=O)[nH]c3C(F)(F)F)cc2)O1 [Example 410, 5-(4-(((2S,6S)-6-((methoxy-d3)methyl)-6-methyl-1,4-dioxan-2-yl)methoxy)phenyl)-2-oxo-6-(trifluoromethyl)-1,2-dihydropyridine-3-carboxamide] | 5 to 10 µM |
| C[C@]1(CC#N)COC[C@@H](COc2ccc(-c3cc(C(N)=O)c(=O)[nH]c3C(F)(F)F)cc2)O1 [Example 411, 5-(4-(((2S,6S)-6-(cyanomethyl)-6-methyl-1,4-dioxan-2-yl)methoxy)phenyl)-2-oxo-6-(trifluoromethyl)-1,2-dihydropyridine-3-carboxamide] | 5 to 10 µM |
| C[C@]1(CS(C)(=O)=O)COC[C@@H](COc2ccc(-c3cc(C(N)=O)c(=O)[nH]c3C(F)(F)F)cc2)O1 [Example 412, 5-(4-(((2S,6R)-6-methyl-6-((methylsulfonyl)methyl)-1,4-dioxan-2-yl)methoxy)phenyl)-2-oxo-6-(trifluoromethyl)-1,2-dihydropyridine-3-carboxamide] | 5 to 10 µM |
| C[C@]1(CS(=O)(=O)C2CC2)COC[C@@H](COc2ccc(-c3cc(C(N)=O)c(=O)[nH]c3C(F)(F)F)cc2)O1 [Example 413, 5-(4-(((2S,6R)-6-((cyclopropylsulfonyl)methyl)-6-methyl-1,4-dioxan-2-yl)methoxy)phenyl)-2-oxo-6-(trifluoromethyl)-1,2-dihydropyridine-3-carboxamide] | 5 to 10 µM |
| COCC1(COC)COC[C@@H](COc2ccc(-c3cc(C(N)=O)c(=O)[nH]c3C(F)(F)F)cc2)O1 [Example 414, (S)-5-(4-((6,6-bis(methoxymethyl)-1,4-dioxan-2-yl)methoxy)phenyl)-2-oxo-6-(trifluoromethyl)-1,2-dihydropyridine-3-carboxamide] | 5 to 10 µM |
| NC(=O)c1cc(-c2ccc(OC[C@@H]3COCC4(COC4)O3)cc2)c(C(F)(F)F)[nH]c1=O [Example 415, (S)-5-(4-((2,5,8-trioxaspiro[3.5]nonan-6-yl)methoxy)phenyl)-2-oxo-6-(trifluoromethyl)-1,2-dihydropyridine-3-carboxamide] | 5 to 10 µM |
| NC(=O)c1cc(-c2ccc(OC[C@@H]3COCC4(COCCOC4)O3)cc2)c(C(F)(F)F)[nH]c1=O [Example 416, (S)-5-(4-((1,4,8,11-tetraoxaspiro[5.6]dodecan-2-yl)methoxy)phenyl)-2-oxo-6-(trifluoromethyl)-1,2-dihydropyridine-3-carboxamide] | 5 to 10 µM |
| COC[C@@]1(CF)COC[C@@H](COc2ccc(-c3cc(C(N)=O)c(=O)[nH]c3C(F)(F)F)cc2)O1 [Example 417, 5-(4-(((2S,6S)-6-(fluoromethyl)-6-(methoxymethyl)-1,4-dioxan-2-yl)methoxy)phenyl)-2-oxo-6-(trifluoromethyl)-1,2-dihydropyridine-3-carboxamide] | 5 to 10 µM |
| COC[C@@]1(CCl)COC[C@@H](COc2ccc(-c3cc(C(N)=O)c(=O)[nH]c3C(F)(F)F)cc2)O1 [Example 418, 5-(4-(((2S,6S)-6-(chloromethyl)-6-(methoxymethyl)-1,4-dioxan-2-yl)methoxy)phenyl)-2-oxo-6-(trifluoromethyl)-1,2-dihydropyridine-3-carboxamide] | 5 to 10 µM |
| C[C@@]1(CF)COC[C@@H](COc2ccc(-c3cc(C(N)=O)c(=O)[nH]c3C(F)(F)F)cc2)O1 [Example 419, 5-(4-(((2S,6S)-6-(fluoromethyl)-6-methyl-1,4-dioxan-2-yl)methoxy)phenyl)-2-oxo-6-(trifluoromethyl)-1,2-dihydropyridine-3-carboxamide] | 5 to 10 µM |
| C[C@]1(CF)COC[C@@H](COc2ccc(-c3cc(C(N)=O)c(=O)[nH]c3C(F)(F)F)cc2)O1 [Example 420, 5-(4-(((2S,6R)-6-(fluoromethyl)-6-methyl-1,4-dioxan-2-yl)methoxy)phenyl)-2-oxo-6-(trifluoromethyl)-1,2-dihydropyridine-3-carboxamide] | 5 to 10 µM |
| C[C@@]1(CN2CC(F)C2)COC[C@@H](COc2ccc(-c3cc(C(N)=O)c(=O)[nH]c3C(F)(F)F)cc2)O1 [Example 421] | 5 to 10 µM |
| C[C@@]1(CN2CC(F)(F)C2)COC[C@@H](COc2ccc(-c3cc(C(N)=O)c(=O)[nH]c3C(F)(F)F)cc2)O1 [Example 422, 5-(4-(((2S,6R)-6-((3,3-difluoroazetidin-1-yl)methyl)-6-methyl-1,4-dioxan-2-yl)methoxy)phenyl)-2-oxo-6-(trifluoromethyl)-1,2-dihydropyridine-3-carboxamide] | 5 to 10 µM |
| CN(C)C[C@@]1(C)COC[C@@H](COc2ccc(-c3cc(C(N)=O)c(=O)[nH]c3C(F)(F)F)cc2)O1 [Example 423, 5-(4-(((2S,6S)-6-((dimethylamino)methyl)-6-methyl-1,4-dioxan-2-yl)methoxy)phenyl)-2-oxo-6-(trifluoromethyl)-1,2-dihydropyridine-3-carboxamide] | 5 to 10 µM |
